For one experiment, the target named is p110δ/p85α (Homo sapiens, UniProt O00329, S675R). Nature of the experiment: Lipid kinase assay of drug effects on p110δ/p85α. Format: biochemical. The conditions noted are these: PtdIns substrate, 40 μM ATP, 10 min at 25° C., 1% DMSO; read-out: IC50, inhibition of lipid kinase activity. The method, then:
(§1) Lipid kinase activity was performed essentially as described by Whitman et al. (1985). Lipid kinase assay buffer was 20 mM Tris HCl pH 7.4, 100 mM NaCl and 0.5 mM EGTA. Lipids were purchased from Sigma. The final concentration of ATP and Mg^2+ in the assay were routinely 0.5 and 3.5 mM, respectively, while lipids were used at 0.2-0.4 mM concentration. Unless otherwise indicated, kinase reaction was for 10 min at 37° C. The solvent for TLC separation of reaction products was propan-1-ol/2 M acetic acid/5 M H3PO4 (65:35:1). Assays of drug effects on the kinase were performed using PtdIns as substrate in the presence of 40 μM ATP (final) for 10 min at 25° C.; all tubes contained 1% DMSO. Activity was quantified by phosphorimager (Molecular Dynamics) analysis of TLC-separated lipid products.

In another experiment the target is p110α/p85α (Bos taurus, UniProt P32871). Nature of the experiment: Lipid kinase assay of drug effects on p110α/p85α. Format: biochemical. As to the method:
as §1

As usually defined, the IC50 is the concentration that inhibits the measured activity by half.

Sequence of p110α/p85α (P32871 whole entry): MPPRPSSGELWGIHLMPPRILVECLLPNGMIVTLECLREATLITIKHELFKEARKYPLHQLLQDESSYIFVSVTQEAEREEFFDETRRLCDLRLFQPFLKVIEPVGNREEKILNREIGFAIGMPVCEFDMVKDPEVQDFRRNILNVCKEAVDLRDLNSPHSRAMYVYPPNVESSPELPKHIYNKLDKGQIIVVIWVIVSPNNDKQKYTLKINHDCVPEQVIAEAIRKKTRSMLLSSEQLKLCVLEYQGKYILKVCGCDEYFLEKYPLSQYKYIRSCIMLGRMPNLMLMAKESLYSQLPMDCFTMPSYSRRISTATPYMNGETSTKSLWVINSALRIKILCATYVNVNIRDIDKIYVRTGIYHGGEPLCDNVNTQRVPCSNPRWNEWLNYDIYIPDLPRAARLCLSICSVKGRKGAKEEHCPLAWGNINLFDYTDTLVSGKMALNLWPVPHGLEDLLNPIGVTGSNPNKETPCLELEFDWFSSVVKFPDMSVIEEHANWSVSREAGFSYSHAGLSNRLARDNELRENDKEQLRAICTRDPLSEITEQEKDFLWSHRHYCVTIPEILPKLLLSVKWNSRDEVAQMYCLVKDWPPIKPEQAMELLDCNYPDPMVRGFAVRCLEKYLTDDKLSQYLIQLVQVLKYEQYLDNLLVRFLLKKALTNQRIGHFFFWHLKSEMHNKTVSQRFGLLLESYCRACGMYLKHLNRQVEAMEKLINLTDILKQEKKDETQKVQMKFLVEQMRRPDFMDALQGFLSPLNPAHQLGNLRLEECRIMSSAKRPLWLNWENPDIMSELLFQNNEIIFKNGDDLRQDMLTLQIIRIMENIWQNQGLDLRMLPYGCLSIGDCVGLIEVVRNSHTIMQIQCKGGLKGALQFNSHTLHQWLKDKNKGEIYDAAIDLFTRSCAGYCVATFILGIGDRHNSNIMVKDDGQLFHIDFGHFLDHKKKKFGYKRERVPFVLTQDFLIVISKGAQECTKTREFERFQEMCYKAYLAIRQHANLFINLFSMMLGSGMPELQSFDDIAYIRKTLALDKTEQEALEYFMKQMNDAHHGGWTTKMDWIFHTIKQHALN
Sequence of p110δ/p85α (O00329 whole entry S675R): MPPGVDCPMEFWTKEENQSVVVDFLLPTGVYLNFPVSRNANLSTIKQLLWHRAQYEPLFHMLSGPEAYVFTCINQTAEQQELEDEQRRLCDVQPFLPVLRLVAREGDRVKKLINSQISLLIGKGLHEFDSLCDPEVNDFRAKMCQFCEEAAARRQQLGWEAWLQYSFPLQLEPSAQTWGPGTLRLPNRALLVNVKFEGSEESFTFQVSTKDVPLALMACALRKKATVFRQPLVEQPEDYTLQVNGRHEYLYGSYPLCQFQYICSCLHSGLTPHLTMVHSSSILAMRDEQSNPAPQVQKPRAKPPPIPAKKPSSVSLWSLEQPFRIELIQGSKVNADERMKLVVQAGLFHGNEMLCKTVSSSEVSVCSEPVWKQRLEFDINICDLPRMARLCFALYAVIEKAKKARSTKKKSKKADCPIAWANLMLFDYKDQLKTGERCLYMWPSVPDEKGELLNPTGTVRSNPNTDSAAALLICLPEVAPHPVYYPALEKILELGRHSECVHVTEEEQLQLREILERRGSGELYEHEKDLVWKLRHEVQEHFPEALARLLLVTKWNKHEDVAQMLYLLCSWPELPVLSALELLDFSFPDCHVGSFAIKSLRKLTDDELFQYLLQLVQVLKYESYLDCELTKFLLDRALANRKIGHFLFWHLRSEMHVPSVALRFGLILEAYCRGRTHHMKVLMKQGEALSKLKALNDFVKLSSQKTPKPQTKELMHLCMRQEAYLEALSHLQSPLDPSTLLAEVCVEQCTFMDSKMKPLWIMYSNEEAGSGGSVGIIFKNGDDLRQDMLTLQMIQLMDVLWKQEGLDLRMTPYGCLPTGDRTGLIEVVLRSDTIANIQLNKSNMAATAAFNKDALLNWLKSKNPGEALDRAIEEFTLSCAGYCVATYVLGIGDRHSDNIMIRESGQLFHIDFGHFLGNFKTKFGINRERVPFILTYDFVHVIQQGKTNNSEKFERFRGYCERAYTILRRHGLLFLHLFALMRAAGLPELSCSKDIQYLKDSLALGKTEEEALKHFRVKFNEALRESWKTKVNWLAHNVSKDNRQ
Sequence of p110δ/p85α (P27986 whole entry partner): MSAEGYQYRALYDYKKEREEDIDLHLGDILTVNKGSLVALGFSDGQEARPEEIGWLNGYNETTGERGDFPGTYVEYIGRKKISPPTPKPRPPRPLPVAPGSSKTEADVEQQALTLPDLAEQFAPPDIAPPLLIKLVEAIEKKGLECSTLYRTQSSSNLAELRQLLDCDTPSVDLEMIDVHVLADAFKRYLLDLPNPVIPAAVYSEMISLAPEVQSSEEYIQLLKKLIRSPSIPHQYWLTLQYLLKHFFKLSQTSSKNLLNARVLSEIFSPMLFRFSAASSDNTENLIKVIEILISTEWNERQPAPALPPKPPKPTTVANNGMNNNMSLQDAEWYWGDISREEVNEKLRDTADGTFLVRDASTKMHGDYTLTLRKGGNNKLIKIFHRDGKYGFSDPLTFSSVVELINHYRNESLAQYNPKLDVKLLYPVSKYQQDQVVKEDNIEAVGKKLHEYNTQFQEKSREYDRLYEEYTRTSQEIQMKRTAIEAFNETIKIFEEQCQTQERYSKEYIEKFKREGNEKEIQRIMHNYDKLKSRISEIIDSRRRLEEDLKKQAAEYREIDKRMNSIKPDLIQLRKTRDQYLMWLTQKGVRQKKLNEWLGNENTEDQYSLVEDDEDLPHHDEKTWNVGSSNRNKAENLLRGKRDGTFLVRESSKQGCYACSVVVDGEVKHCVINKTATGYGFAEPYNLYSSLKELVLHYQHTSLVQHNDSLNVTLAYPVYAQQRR

On to `O=c1cc(N2CCOCC2)oc2c(-c3ccccc3)cccc12` [LY294002], for which, on p110δ/p85α, the IC50 was found to be 500 nM.

`COC[C@H]1OC(=O)c2coc3c2[C@@]1(C)C1=C(C3=O)[C@@H]2CCC(=O)[C@@]2(C)C[C@H]1OC(C)=O` [wortmannin] had a concentration for half-maximal inhibition (IC50) on p110α/p85α of 5 nM.
